Reference: patent publication US20140249198A1, “MELATONIN AND ITS USE IN PREVENTING POSTOPERATIVE COMPLICATIONS” (NUTRI-FIT GMBH & CO., KG, priority 2004, published 2014)

What was measured:
[1] = tested on: female Sprague Dawley rats; assay: Partial liver resection with ischemia/reperfusion in rats, preoperative melatonin by gavage; format: in vivo, rat
Protocol: Ischemia and subsequent reperfusion of organs and tissues induced by clamping of blood vessels to prevent excessive bleeding, are unavoidable during surgical procedures. Such a standard ischemia/reperfusion situation can be simulated by a partial hepatectomy in a clinically relevant rat surgical model.
In this animal model, female Sprague Dawley rats (200-220 g) undergo a median laparotomy followed by clamping of the right lateral liver lobe for 20 min resulting in a hypoxia in about 30% of the entire organ. After reperfusion of the ischemic tissue, the remaining 70% of the liver, the non-ischemic middle and left lateral liver lobes are surgically removed and the surgical incision is closed. During a follow up period of maximal 7 days the effects of ischemia/reperfusion are observed with respect to liver damage and survival.
In this rat model the operative trauma of performing a laparotomy introduces a first hypoxia in the liver. The subsequent partial clamping of the blood supply to the liver and the following partial resection of a large part of liver tissue results in additional ischemia. During the subsequent reperfusion the actual free radical-induced damage to the liver tissue occurs. This actual damage to many cells of the liver tissue in regions of the remaining parts of the organ is now determined by the release of enzymes such as liver transaminases, alkaline phosphatase after various time points following partial liver resection.
After reperfusion of the ischemic tissue, the remaining 70% of the liver, the non-ischemic middle and the left lateral liver lobes were surgically removed and the surgical incision was closed.
In this rat model the operative trauma of performing a laparotomy introduced a first hypoxia in the liver. […] During the subsequent reperfusion the actual free radical-induced damage to the liver tissue occurred. This actual damage to many cells of the liver tissue in regions of the remaining parts of the organ was now determined by the release of enzymes such as liver transaminases (AST, ALT) and alkaline phosphatase after various time points following partial liver resection.
Melatonin was administered in various concentrations (0, 10, 20, 50 mg/kg body weight) by gavage of a control (5% ethanol in water; 0 mg/kg body weight melatonin) or a melatonin-containing aqueous solution (5% ethanol) into the stomach of the 10 rats of each of the four groups 2 hours before the surgery.

neonates = conditions: treatment started within 3 hours after the end of surgery; cited from earlier work
[2] = tested on: rat middle cerebral artery occlusion model; conditions: pretreatment with melatonin; cited from earlier work
neutrophils = conditions: in vitro; apoptosis delayed following hepatectomy; cited from earlier work
mice = conditions: short term administration after surgery-induced hemorrhagic shock, mice subjected to septic challenge; cited from earlier work
[3] = 10, 20, 50 mg/kg body weight by gavage 2 hours before surgery, 3 and 8 h after partial liver resection, vs control, FIG. 1

## COc1ccc2[nH]cc(CCNC(C)=O)c2c1 [Melatonin, N-acetyl-5-methoxytryptamin]
[1]; 10 mg/kg body weight preoperatively, vs control, FIG. 3
  survival after 7 days: significant increase in survival
[1]; 50 mg/kg body weight preoperatively, 3, 8, 48 h and 1 week after partial liver resection, vs control, FIG. 2
  alkaline phosphatase (ALP) activity (indicates regeneration of the liver): increased ALP activity after 48 h reaching statistical significance after 1 week
[1]; [3]
  level of alanine transferase (ALT): amelioration of the massive increase
  level of aspartate transferase (AST): amelioration of the massive increase
[1]; preoperative application, partial liver resection in rats
  hypoxia of liver tissue: reduces the increase in hypoxia of liver tissue
[1]; preoperative application, rats
  extent of necrosis following ischemia/reperfusion of the liver: reduces the extent of necrosis
neonates
  clinical parameters of inflammation: progressive reduction of clinical parameters of inflammation
[2]
  volume of cerebral infarction: reduce the volume of cerebral infarction
neutrophils
  apoptosis activity in neutrophils: enhances apoptosis activity in neutrophils
mice
  survival: significantly improved survival
